According to patent publication US7786141B2 (Vertex Pharmaceuticals Incorporated, priority 2004, dated 2010):

What was measured:
[1] = target: T1, M1 muscarinic receptor (Homo sapiens, UniProt P11229); experiment: Functional mobilization of intracellular calcium (FLIPR) in M1-CHO cells; type: cell-based; conditions: M1 receptor, calcium mobilization; for Emax: read-out: M1 Efficacy
T1 construct: expressed in transfected cells; host or cells: CHO (M1-CHO)
T1 sequence (P11229 1-460): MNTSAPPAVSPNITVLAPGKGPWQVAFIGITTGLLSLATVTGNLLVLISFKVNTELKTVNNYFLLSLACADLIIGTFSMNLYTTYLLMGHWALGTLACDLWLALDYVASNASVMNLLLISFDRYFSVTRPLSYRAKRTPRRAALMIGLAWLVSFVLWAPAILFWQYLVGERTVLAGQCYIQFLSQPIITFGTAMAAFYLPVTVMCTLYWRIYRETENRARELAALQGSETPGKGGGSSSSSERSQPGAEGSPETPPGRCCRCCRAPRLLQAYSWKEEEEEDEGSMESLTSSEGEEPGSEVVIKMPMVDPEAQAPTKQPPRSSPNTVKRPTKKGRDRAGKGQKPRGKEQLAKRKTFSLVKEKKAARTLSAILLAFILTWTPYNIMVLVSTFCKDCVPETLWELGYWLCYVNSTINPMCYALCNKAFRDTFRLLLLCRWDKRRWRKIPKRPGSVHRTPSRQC
Experimental: Functional Mobilization of Intracellular Calcium to Determine Muscarinic Receptor Activity:
CHO cells expressing muscarinic receptors (M1 to M5) are grown as monolayers in tissue culture flasks at 37° C. in a humidified atmosphere containing 5% CO2 and passaged every 3-5 days. The growth media is Dulbecco's modified eagles medium (DMEM, Gibco Cat# 12430-054), containing 25 mM Hepes and supplemented with Fetal Bovine Serum (Hyclone, cat# SH30071.03), 0.1 mM of MEM non-essential amino acids (GIBCO, Cat# 11140-050), 1 mM MEM Sodium Pyruvate (GIBCO Cat# 11360-070) and 100 units/ml of Penicillin G and 100 μg/ml of Streptomycin (GIBCO Cat# 15140-122). The recombinant muscarinic receptor cell lines are grown under antibiotic pressure with media containing 25 μg/ml zeocin and 500 μg/ml G418 (M1-CHO), 4 μg/ml puromycin, 50 μg/ml zeocin and 2.5 μg/ml blasticidin (M2 and M4-CHO) or 50 μg/ml zeocin and 4 μg/ml puromycin (M3 and M5-CHO).
Cells are harvested at 80-90% confluence using Versene (GIBCO Cat# 15040-066), collected by centrifugation and seeded 18-24 hrs prior to running the calcium assay at a density of 5,000 cells/well in back-walled, clear-bottomed 384-well plates (BD Biocoat, poly-D-lysine, Cat#356663). The day of the experiment, the cells are washed with a plate washer (Bioteck Instruments, ELX 405) using bath 1 buffer (140-mM NaCl, 4.5-mM KCl, 2-mM CaCl2, 1-mM MgCl2, 10-mM Hepes-Na, 10-mM Glucose, pH 7.4, with NaOH) containing 1 mM Probenecid. Next, the calcium dye Fluo-3 (25 μl/well of Fluo-3 AM at 4 μM, Molecular Probes F-1241, in Bath 1 buffer containing 1 mM Probenecid) is added to the 25 μl of Bath 1 remaining in each well after the plate wash and the dye is loaded at 37° C. in the tissue culture incubator for 60-90 min. The fluorescent dye is removed using the plate washer with Bath 1 containing 1 mM Probenecid, leaving 25 μl/well of this solution after the wash. Alternatively, cells can be loaded with the calcium indicator from Molecular Devices (Calcium 3 Assay Reagents, Cat # R7181) adding 5 μl of a 5× solution dye in Bath 1 containing 1 mM Probenecid (10 ml per dye flask cat# R7182 to generate a solution 20×) to 20 μl of the same buffer. After loading for 60 min, the experiment can be run without having to remove the dye.
Compounds are prepared at a 2× fold concentration in a 96-well plate (round bottom, Costar Corning cat# 3656), by reconstituting the pre-spotted compounds in bath 1 containing 1 mM probenecid. The final concentration DMSO is 0.5%, and the amount of DMSO is normalized across the assay plate. To determine an agonist action of the compounds on muscarinic receptors, the reconstituted compounds are added (25 μl compound/well) to the cell assay plate (containing 25 μl/well) using the multi-channel robotic system of the FLIPR 3 Instrument (Molecular Devices, Sunnyvale, Calif.). To determine a functional inhibitory action of the compounds on muscarinic receptors, the reconstituted compounds are added (25 μl compound/well) to the assay plate and pre-incubated for 15 min prior to adding 25 μl of Carbachol at 3× the EC80 for each muscarinic subtype. Alternatively, the compounds can be co-applied simultaneously with the agonist. In both assay modes, the fluorescence is recorded for 60 sec (excitation wavelength is […] and emission wavelength 540 nm) using the FLIPR 3 instrument.
The potency, efficacy and selectivity of the muscarinic compounds were evaluated by screening the compound activity across the whole family (M1 to M5 cells). Compounds were also screened for activity on other proteins such as other GPCRs and ion channels to determine selectivity on M4 receptors.

[2] = target: T2, M4 muscarinic receptor (Homo sapiens, UniProt P08173); experiment: Functional mobilization of intracellular calcium (FLIPR) in M4-CHO cells; type: cell-based; conditions: M4 receptor, calcium mobilization; for Emax: read-out: M4 Efficacy
T2 construct: expressed in transfected cells; host or cells: CHO (M4-CHO)
T2 sequence (P08173 1-479): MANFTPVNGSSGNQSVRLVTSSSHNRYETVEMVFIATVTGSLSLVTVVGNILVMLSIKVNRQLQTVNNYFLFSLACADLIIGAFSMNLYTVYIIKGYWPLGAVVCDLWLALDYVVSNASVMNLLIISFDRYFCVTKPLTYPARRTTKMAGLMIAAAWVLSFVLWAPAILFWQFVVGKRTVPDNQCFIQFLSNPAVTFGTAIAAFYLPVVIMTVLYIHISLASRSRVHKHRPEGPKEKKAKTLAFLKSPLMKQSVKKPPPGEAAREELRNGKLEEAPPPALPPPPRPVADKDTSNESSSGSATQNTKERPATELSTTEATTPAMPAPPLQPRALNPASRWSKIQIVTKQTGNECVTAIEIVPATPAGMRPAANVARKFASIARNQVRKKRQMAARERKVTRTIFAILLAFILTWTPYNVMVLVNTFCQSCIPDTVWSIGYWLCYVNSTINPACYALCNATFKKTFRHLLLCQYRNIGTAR
Summary of the method: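 Measured via Fluo-3 fluorescence on a FLIPR, CHO cells with either muscarinic subtype received compound in 0.5% DMSO. Antagonism was assessed after 15 min pre-incubation followed by carbachol at each subtype's EC80; agonism from compound addition alone.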

Row | Structure (SMILES) | M1 Activity [1] | Emax [1] | M4 Activity [2] | Emax [2]
1 | CCOC(=O)N1C2CCC1CC(N1CCC3(CC1)CC(=O)Nc1ccccc13)C2 (stereo not shown) [compound 56] | xxx (activity was measured to be less than 0.1 μM) | 65 to 85% | xxx (activity was measured to be less than 0.1 μM) | 65 to 85%
2 | O=C(C1CC1)N1CC2(CCN(C3CC4CCC(C3)N4C(=O)O[C@H]3CCOC3)CC2)c2cc(F)ccc21 (stereo partly shown) [compound 57] | xxx (activity was measured to be less than 0.1 μM) | 65 to 85% | xxx (activity was measured to be less than 0.1 μM) | 65 to 85%
3 | CCOC(=O)N1CCC(N2CCC3(CC2)CN(C(C)=O)c2ccc(-c4ccc(C)cc4)cc23)CC1 [compound 58] | xxx (activity was measured to be less than 0.1 μM) | 65 to 85% | xx (activity was measured to be between 0.1 μM and 1.0 μM) | 65 to 85%
4 | CCOC(=O)N1C2CCC1CC(N1CCC3(CC1)CN(C(=O)c1snnc1C)c1ccc(F)cc13)C2 (stereo not shown) [compound 59] | xxx (activity was measured to be less than 0.1 μM) | < 65% | xx (activity was measured to be between 0.1 μM and 1.0 μM) | 65 to 85%
5 | CCOC(=O)N1CCC(CN2CCC3(CC2)CN(C(C)=O)c2ccc(F)cc23)CC1 [compound 60] | xx (activity was measured to be between 0.1 μM and 1.0 μM) | 65 to 85% | x (activity was measured to be greater than 1.0 μM) | 65 to 85%
6 | CCOC(=O)N1CCC(N2CCC3(CC2)C[C@H](NC(C)=O)c2ccccc23)CC1 [compound 61] | xxx (activity was measured to be less than 0.1 μM) | 65 to 85% | xx (activity was measured to be between 0.1 μM and 1.0 μM) | 65 to 85%
7 | C#CCCOC(=O)N1CCC(N2CCC3(CC2)CN(C(C)=O)c2ccc(F)cc23)CC1 [compound 62] | xxx (activity was measured to be less than 0.1 μM) | < 65% | xx (activity was measured to be between 0.1 μM and 1.0 μM) | 65 to 85%
8 | CCOC(=O)N1CCC(N2CCC3(CC2)CN(C(=O)OCC(C)(C)C)c2ccc(F)cc23)CC1 [compound 63] | xxx (activity was measured to be less than 0.1 μM) | < 65% | x (activity was measured to be greater than 1.0 μM) | < 65%
9 | Clc1ccc2c(c1)C1(CCO2)CCN(C[C@H]2C[C@H]3C=C[C@H]2C3)CC1 [compound 64] | xxx (activity was measured to be less than 0.1 μM) | < 65% | xx (activity was measured to be between 0.1 μM and 1.0 μM) | < 65%
10 | COCCOC(=O)N1CCCC(N2CCC3(CC2)CN(C(C)=O)c2ccc(F)cc23)CC1 (stereo not shown) [compound 65] | xx (activity was measured to be between 0.1 μM and 1.0 μM) | 65 to 85% | x (activity was measured to be greater than 1.0 μM) | < 65%
11 | CCOC(=O)N1CCC(N2CCC3(CC2)CN(C(=O)c2ccc(OC(F)(F)F)cc2)c2ccc(F)cc23)CC1 [compound 66] | xxx (activity was measured to be less than 0.1 μM) | > 85% | xxx (activity was measured to be less than 0.1 μM) | > 85%
12 | CC(=O)N1CC2(CCN(C3CC4CCC(C3)N4C(=O)O[C@@H]3CCOC3)CC2)c2cc(F)ccc21 (stereo partly shown) [compound 67] | xxx (activity was measured to be less than 0.1 μM) | < 65% | xx (activity was measured to be between 0.1 μM and 1.0 μM) | < 65%
13 | O=C(OC1CCC1)N1C2CCC1CC(N1CCC3(CCc4ccccc43)CC1)C2 (stereo not shown) [compound 68] | xx (activity was measured to be between 0.1 μM and 1.0 μM) | < 65% | x (activity was measured to be greater than 1.0 μM) | < 65%
14 | O=C(C1CCC1)N1CC2(CCN(C3CC4CCC(C3)N4C(=O)O[C@@H]3CCOC3)CC2)c2cc(F)ccc21 (stereo partly shown) [compound 69] | xx (activity was measured to be between 0.1 μM and 1.0 μM) | < 65% | xx (activity was measured to be between 0.1 μM and 1.0 μM) | < 65%
15 | CS(=O)(=O)N[C@H]1CC2(CCN(C[C@H]3C[C@H]4C=C[C@H]3C4)CC2)c2ccccc21 [compound 70] | xx (activity was measured to be between 0.1 μM and 1.0 μM) | 65 to 85% | x (activity was measured to be greater than 1.0 μM) | 65 to 85%
16 | COCCOC(=O)N1C2CCC1CC(N1CCC3(CC1)C(=O)Nc1ccccc13)C2 (stereo not shown) [compound 71] | xxx (activity was measured to be less than 0.1 μM) | < 65% | xx (activity was measured to be between 0.1 μM and 1.0 μM) | < 65%
17 | Cc1ccc2c(c1)C1(CCN(C3C4CCCC3CCC4)CC1)CN2 (stereo not shown) [compound 72] | xxx (activity was measured to be less than 0.1 μM) | 65 to 85% | xx (activity was measured to be between 0.1 μM and 1.0 μM) | 65 to 85%
18 | CCOC(=O)N1C2CCC1CC(N1CCC3(CC1)CN(C(=O)c1cc(C)oc1C)c1ccc(F)cc13)C2 (stereo not shown) [compound 73] | xxx (activity was measured to be less than 0.1 μM) | 65 to 85% | xx (activity was measured to be between 0.1 μM and 1.0 μM) | 65 to 85%
19 | CCCc1ccc2c(c1)C1(CCN(C3CCN(C(=O)OCC)CC3)CC1)CN2C(C)=O [compound 74] | xxx (activity was measured to be less than 0.1 μM) | 65 to 85% | xx (activity was measured to be between 0.1 μM and 1.0 μM) | 65 to 85%
